# Activity calls are given as the source filed them. The calls are words filed in the database; no cut-off is given here.
# Biological target: Serine/threonine-protein kinase PAK 1 (Homo sapiens, UniProt Q13153)
# Experiment: Inhibition of PAK1 (unknown origin) […] measured after 40 mins by ADP-glo kinase assay
# Chain of Serine/threonine-protein kinase PAK 1 (Q13153 whole entry): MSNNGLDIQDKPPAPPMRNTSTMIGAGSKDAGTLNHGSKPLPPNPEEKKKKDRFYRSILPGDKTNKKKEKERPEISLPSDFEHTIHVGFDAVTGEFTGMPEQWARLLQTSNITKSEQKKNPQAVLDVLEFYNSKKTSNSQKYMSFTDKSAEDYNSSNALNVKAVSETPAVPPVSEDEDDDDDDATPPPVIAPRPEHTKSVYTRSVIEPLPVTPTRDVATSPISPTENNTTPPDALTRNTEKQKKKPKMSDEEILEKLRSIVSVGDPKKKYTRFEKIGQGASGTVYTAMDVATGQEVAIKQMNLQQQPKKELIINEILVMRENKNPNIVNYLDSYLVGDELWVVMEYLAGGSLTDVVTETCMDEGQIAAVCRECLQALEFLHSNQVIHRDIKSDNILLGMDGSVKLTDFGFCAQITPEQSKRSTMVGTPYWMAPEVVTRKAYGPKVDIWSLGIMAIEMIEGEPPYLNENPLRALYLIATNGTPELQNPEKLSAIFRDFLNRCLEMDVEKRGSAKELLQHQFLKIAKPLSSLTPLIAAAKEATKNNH
row,Compound,IC50
1,O=C(c1ccc(Cl)cc1)N1CCC(Nc2ncnc3[nH]ncc23)CC1,9.44 µM
2,Cc1cccc(C)c1NC(=O)NC1CCN(c2ncnc3[nH]ncc23)CC1,2.16 µM
3,O=C(c1ccccc1Cl)N1CCC(Nc2ncnc3[nH]ncc23)CC1,6.84 µM
4,COc1ccc(C(=O)NC2CCN(c3ncnc4[nH]ncc34)CC2)cc1,8.82 µM
5,O=C(Nc1ccc(Br)cc1)NC1CCN(c2ncnc3[nH]ncc23)CC1,4.03 µM
6,O=C(c1cccc(C(F)(F)F)c1)N1CCC(Nc2ncnc3[nH]ncc23)CC1,> 50 µM
7,O=C(c1cccc(Cl)c1Cl)N1CCC(Nc2ncnc3[nH]ncc23)CC1,6.77 µM
8,FC(F)(F)c1cc(NC(=S)N2CCC(Nc3ncnc4[nH]ncc34)CC2)cc(C(F)(F)F)c1,8.71 µM
9,O=C(Nc1cccc2ccccc12)N1CCC(Nc2ncnc3[nH]ncc23)CC1,> 50 µM
10,S=C(Nc1ccccc1Cl)N1CCC(Nc2ncnc3[nH]ncc23)CC1,6.67 µM
11,O=C(Nc1ccc(Cl)c(Cl)c1)NC1CCN(c2ncnc3[nH]ncc23)CC1,2.29 µM
12,Cc1ccccc1C(=O)NC1CCN(c2ncnc3[nH]ncc23)CC1,6.26 µM
13,S=C(Nc1cccc2ccccc12)N1CCC(Nc2ncnc3[nH]ncc23)CC1,> 50 µM
14,COc1ccc(NC(=O)N2CCC(Nc3ncnc4[nH]ncc34)CC2)cc1,13.8 µM
15,O=C(c1ccc(Br)cc1)N1CCC(Nc2ncnc3[nH]ncc23)CC1,29.2 µM
16,S=C(Nc1cccc(Cl)c1)N1CCC(Nc2ncnc3[nH]ncc23)CC1,7.89 µM
17,O=C(c1ccc(F)cc1)N1CCC(Nc2ncnc3[nH]ncc23)CC1,7.82 µM
18,Cc1cc(C)c(C(=O)N2CCC(Nc3ncnc4[nH]ncc34)CC2)c(C)c1,31.1 µM
19,COc1ccc(NC(=S)N2CCC(Nc3ncnc4[nH]ncc34)CC2)cc1,15.1 µM
20,O=C(Nc1cccc(Cl)c1)N1CCC(Nc2ncnc3[nH]ncc23)CC1,7.18 µM
21,O=C(Nc1ccc(F)cc1F)N1CCC(Nc2ncnc3[nH]ncc23)CC1,5.17 µM
22,O=C(Nc1ccc(Cl)c(Cl)c1)N1CCC(Nc2ncnc3[nH]ncc23)CC1,10.8 µM
23,Cc1ccc(C(=O)NC2CCN(c3ncnc4[nH]ncc34)CC2)cc1,5.61 µM
24,O=C(Nc1ccccc1Cl)N1CCC(Nc2ncnc3[nH]ncc23)CC1,5.24 µM
25,O=C(Nc1ccc(F)cc1F)NC1CCN(c2ncnc3[nH]ncc23)CC1,1.14 µM

# Continued, values first:
row,IC50,Compound
1,4.17 µM,O=C(NC1CCN(c2ncnc3[nH]ncc23)CC1)c1cccc(Cl)c1Cl
2,17.4 µM,Cc1ccc(NC(=O)N2CCC(Nc3ncnc4[nH]ncc34)CC2)cc1
3,39.5 µM,Cc1ccc(C(=O)N2CCC(Nc3ncnc4[nH]ncc34)CC2)cc1
4,6.77 µM,Cc1cc(C)c(C(=O)NC2CCN(c3ncnc4[nH]ncc34)CC2)c(C)c1
5,5.24 µM,O=C(NC1CCN(c2ncnc3[nH]ncc23)CC1)c1ccccc1Cl
6,4.71 µM,Cc1ccc(NC(=O)NC2CCN(c3ncnc4[nH]ncc34)CC2)cc1
7,9.32 µM,O=C(Nc1cc(C(F)(F)F)cc(C(F)(F)F)c1)N1CCC(Nc2ncnc3[nH]ncc23)CC1
8,33.2 µM,Cc1ccccc1C(=O)N1CCC(Nc2ncnc3[nH]ncc23)CC1
9,5.74 µM,O=C(NC1CCN(c2ncnc3[nH]ncc23)CC1)c1ccc(C(F)(F)F)cc1
10,2.51 µM,O=C(NC1CCN(c2ncnc3[nH]ncc23)CC1)c1cccc(C(F)(F)F)c1
11,16.4 µM,O=C(NC1CCN(c2ncnc3[nH]ncc23)CC1)c1ccc(Br)cc1
12,7.15 µM,O=C(Nc1ccc(C(F)(F)F)cc1)NC1CCN(c2ncnc3[nH]ncc23)CC1
13,1.24 µM,O=C(Nc1cccc(Cl)c1)NC1CCN(c2ncnc3[nH]ncc23)CC1
14,17.9 µM,O=C(Nc1ccc(Br)cc1)N1CCC(Nc2ncnc3[nH]ncc23)CC1
15,7.36 µM,Cc1cccc(C)c1NC(=S)N1CCC(Nc2ncnc3[nH]ncc23)CC1
16,> 50 µM,O=C(c1ccc(C(F)(F)F)cc1)N1CCC(Nc2ncnc3[nH]ncc23)CC1
17,15.8 µM,O=C(Nc1ccc(C(F)(F)F)cc1)N1CCC(Nc2ncnc3[nH]ncc23)CC1
18,5.46 µM,O=C(Nc1ccc(Cl)cc1Cl)N1CCC(Nc2ncnc3[nH]ncc23)CC1
19,0.56 µM,O=C(Nc1ccccc1Cl)NC1CCN(c2ncnc3[nH]ncc23)CC1
20,6.27 µM,Cc1cccc(C)c1NC(=O)N1CCC(Nc2ncnc3[nH]ncc23)CC1
21,19.6 µM,Cc1ccc(NC(=S)N2CCC(Nc3ncnc4[nH]ncc34)CC2)cc1
22,11.1 µM,O=C(Nc1cccc2ccccc12)NC1CCN(c2ncnc3[nH]ncc23)CC1
23,4.54 µM,O=C(NC1CCN(c2ncnc3[nH]ncc23)CC1)c1ccc(F)cc1
24,6.37 µM,COc1ccc(NC(=O)NC2CCN(c3ncnc4[nH]ncc34)CC2)cc1

# Tested on: MDA-MB-231
# Experiment: Down regulation of PAK1 expression in human MDA-MB-231 cells at 5 uM measured after 24 hrs by immunofluorescence analysis
# Type: functional, cell-based
row,Compound,Activity
1,CCn1c(=O)c(-c2ccc(-c3cncs3)cc2Cl)cc2cnc(Nc3ccc(N4CCN(C)CC4)cc3)nc21,Active

# From ChEMBL document CHEMBL4765282, “Design, synthesis and biological evaluation of 1H-pyrazolo [3,4-d]pyrimidine derivatives as PAK1 inhibitors that trigger apoptosis, ER stress and anti-migration effect in MDA-MB-231 cells” (Eur J Med Chem, 2020)
